{"source": "patent US20120107916A1", "about": "“METHODS AND COMPOSITIONS FOR AFFECTING THE DIFFERENTIATION OF CLOSTRIDIA IN CULTURE” (priority 2009, published 2012)", "tested_on": "C. beijerinckii NCIMB 8052", "experiment": "Ceric ion reactive compounds (total alcohols) in culture broths, colorimetric ceric ammonium nitrate assay", "format": "cell-based, Clostridium beijerinckii", "conditions": "50 nM peptide; for Optical density of ceric ion reactive compounds measured at 500 nm: transfer 3, 96 h, 30° C.", "protocol": "Bacterial strains and media. Clostridium acetobutylicum ATCC 824 and C. beijerinckii NCIMB 8052 are available from several commercial microbial culture collections including the American Type Culture Collection (ATCC), Manassas, Va., USA. The strains were grown at 30° C. or 37° C. in YE broth, which contained, per liter: 5.0 g yeast extract, 2.5 g casamino acids, 1.0 g L-asparagine, 0.5 g cysteine.HCl, 56 mg K2HPO4, 56 mg KH2PO4, 82 mg anhydrous MgSO4, 8 mg FeSO4.H2O, 6 mg MnSO4.H2O and 10 g glucose. Alternatively, strains were grown in YEPG broth, which was identical to YE expect that K2HPO4 and KH2PO4 were increased to 145 mg/L each and glucose was increased to 60 g/L. The pH of the media was adjusted to 7.2 using 45% KOH prior to sterilization by autoclaving. Media were solidified by addition of 1.5% Bacteriological Agar, Actimedia Manufacturers, Inc., Lansing, Mich. All cultures were grown in anaerobic conditions using the AnaeroPack System, Mitsubishi Gas Chemical Co., Inc., Japan, and GasPak EZ Gas Generating Sachets, Becton, Dickinson and Co., Sparks, Md. Spore stocks were kept at room temperature on agar-solidified media and were activated by suspending spores in 0.5 mL to 1.0 mL of medium followed by heating for 10 min at 80° C. before inoculation into growth medium.\nAnalysis of solvents. Total alcohols in cell-free culture supernatants were measured using a modification of a colorimetric method based on ceric ammonium nitrate (Reid and Truelove, 1952). […] The sample was mixed by inverting the cuvette six times then exactly two minutes later the optical density at 500 nm wavelength was measured. The concentration of total alcohols was determined by comparison with a standard curve prepared by using butanol diluted in distilled water.\nEffect of peptide SEQ ID NO:145 addition on sequential batch cultures of C. beijerinckii NCIMB 8052 grown at 30° C. […] Each culture was stopped after 96 hours of incubation and optical density, pH and ceric ion reactive chemicals were measured. […]", "data": [{"substance": "IRLIT (Derived from Clostridium beijerinckii SEQ ID NO: 141) [Peptide SEQ ID NO:145, pentapeptide from C. beijerinckii NCIMB 8052 locus Cbei_1065; chemically synthesized putative autoinducing peptide]", "values": [{"measurement": "Effect on endpoint measurements of ceric ion reactive compounds", "setting": "37° C.", "result": "no apparent effect"}, {"measurement": "Optical density of ceric ion reactive compounds measured at 500 nm", "setting": "listed as SEQ ID NO: 145", "result": "−0.002"}, {"measurement": "Optical density of ceric ion reactive compounds measured at 500 nm", "setting": "listed as SEQ ID NO:145", "result": "no ceric ion reactive compounds"}]}]}
